Patent US20240026261A1, “ENGINEERING OF ORGANOID CULTURE FOR ENHANCED ORGANOGENESIS IN A DISH” (THE TRUSTEES OF THE UNIVERSITY OF PENNSYLVANIA, priority 2020, published 2024)

What was measured:
Type in all cases: cell-based, mouse
intestinal organoids = experiment: Intracellular calcium imaging (Fluo-4) of intestinal organoids
Procedure: To assess the level of intracellular calcium, the organoids were labeled with a fluorescent calcium indicator dye (Fluo-4) and monitored their fluorescence in real-time. Given the multicellular complexity of organoids, the mean fluorescence intensity was measured from representative organoids selected for analysis. Upon treatment with 100 μM ATP, organoids in the device increased their fluorescence by approximately 1.6-fold within 60 seconds, which was followed by a gradual decrease to the baseline level (FIG. 4E).
For calcium imaging, the organoid media were removed from the culture wells, and the organoid constructs were washed once in live-cell imaging solution (LCIS). The organoids were then loaded with Fluo-4 calcium imaging solution (F10489, ThermoFisher Scientific, USA) prepared according to the manufacturer's protocol. The samples were incubated at 37° C. for 30 minutes, which was followed by another 30-minute incubation at room temperature. Subsequently, the Fluo-4 solution was removed, and the organoids were washed once with LCIS. All samples were kept in fresh LCIS until use. An inverted epi-fluorescence microscope (Axio Observer D1, Zeiss, Germany) was used to visualize calcium staining of organoids upon stimulation with 100 μM of ATP (A1852, Sigma, USA) and 50 mM of glucose (G7021, Sigma, USA).
For ratiometric analysis of changes in Ca2+ levels, fluorescence intensity for each or-ganoid was measured during an experiment, and values were normalized by their resting intensities using the equation below.
ΔCa^2+=(F−Frest)/Frest (1)

[1] = system: co-culture of intestinal organoids and primary intestinal fibroblasts (αSMA); experiment: TGF-β-induced intestinal fibrosis model in OCTOPUS, αSMA immunofluorescence (fibroblast activation); conditions: for increase in level of αSMA expression in comparison to untreated tissues: TGF-β 1 ng/ml from day 5
Excerpt: To this end, OCTOPUS was used to set up a co-culture of intestinal organoids and primary intestinal fibroblasts in the same hydrogel scaffold and generate a multicellular construct reminiscent of the intestinal epithelium and its underlying stroma in vivo (FIG. 6A). In this mixed co-culture configuration, the intestinal progenitor cells embedded in Matrigel developed into or-ganoids over the course of 5 days or so, during which fibroblasts began to spread and proliferate around the nascent organoids. […] Prolonged culture in this device led to the formation of microtissues densely populated with enlarged organoids and fibroblasts (FIG. 6C).
(§1) To simulate the scenario of using this system to assess intestinal fibrosis in a conventional laboratory setting, a common technique widely used for in vitro modeling of fibrosis, which was to treat the co-culture construct with transforming growth factor (TGF)-β, were used. TGF-β plays a central role in the pathogenesis of fibrosis in the intestine and other organs by inducing the activation of fibroblasts and their transdifferentiation into myofibroblasts, which are the key effector cells that drive fibrogenesis. To trigger fibrogenic responses, the model was treated with TGF-β at 1 ng/ml from day 5 to day 12. Exposure of the intestinal microtissue to this condition indeed caused the fibroblasts to acquire the contractile phenotype of myofibroblasts, as evidenced by robust expression of alpha-smooth muscle actin (αSMA) (FIG. 6D). In comparison to untreated tissues, the level of expression increased by more than 1.9- and 2.9-fold by day 8 and day 12, respectively (FIG. 6E).
(§2) First, fibrotic intestinal tissue constructs in OCTOPUS were generated by forming co-culture organoids over 5 days and exposing them to TGF-β for another 7 days as described above (day 5-day 12). These constructs were then treated with clinically relevant concentrations of the drugs for 48 hours (day 13-day 14) within the therapeutic window identified by viability assessment (data not shown). […] At 0.1 mM, Pirfenidone was effective for altering the contractile phenotype of fibroblasts, as illustrated by 50% reduction in αSMA compared to the untreated control (FIGS. 6L to 6O).
(§3) To form an intestinal fibrosis model suitable for, e.g. drug testing, in OCTOPUS, mouse intestinal stem cells were mixed with 1×10^6 cells/ml of mouse intestinal fibroblasts in Matrigel (356255, Corning, USA). This cell-containing hydrogel solution was injected into the device to form microtissue constructs in the organoid culture chambers. After gelation for 15 minutes in a regular cell culture incubator, 750 μl of IntestiCult™ organoid growth medium (06005, STEMCELL Technologies, Canada) was added into each well and maintained for 5 days to induce intestinal organoid development and fibroblast proliferation. During this period, the media were replenished every other day. To induce fibrosis, 1 ng/ml of TGF-β (T5050, Sigma, USA) was added to the culture wells on day 5 and maintained for additional 7 days. Drug administration occurred on day 12 using commercially available Pirfenidone (P1871, TCI America, USA) and Nintedanib (S1010, Selleckchem, USA) at specified concentrations. The fibrosis model was treated with drugs for 48 hours, after which changes in its fibrotic phenotype were analyzed using the methods described herein.
(§4) For immunofluorescence staining, cells in OCTOPUS were washed with PBS twice, fixed with 4% paraformaldehyde (Electron Microscopy Sciences, USA) for 15 minutes at room temperature, and washed again twice with PBS. The cells were then permeabilized with 0.1% Triton X-100 (Sigma) in PBS for 3 minutes and exposed to blocking buffer composed of PBS and 3% bovine serum albumin (BSA; Sigma) for overnight at 4° C. […]

[2] = system: co-culture of intestinal organoids and primary intestinal fibroblasts (released fibronectin); experiment: Intestinal fibrosis model in OCTOPUS, released fibronectin by ELISA of conditioned media
Excerpt: (§5) The difference between the two groups became evident within 3 days of treatment and remained statistically significant throughout the culture period (FIG. 6I). […] Consistent with the analysis of fibroblast activation and proliferation (FIG. 6E, FIG. 6F), from the comparison between co-culture and monoculture models, intestinal organoids potentiate the fibrogenic effect of TGF-β and promote FN production by fibroblasts (FIG. 6I, FIG. 6J) were identified.
as §2
For the analysis of fibronectin production in the intestinal fibrosis model, a mouse fibronectin ELISA kit (ab108849, abcam, USA) was used. The media in the wells were collected at specified time points and assayed using manufacturer-provided protocols. First, 50 μl of standard or device-collected samples were added into each well and incubated for 2 hours at room temperature. Subsequently, the wells were washed 5 times with 300 μl of wash buffer solution and then incubated with fibronectin antibody for 1 hour. […]
For all ELISA assays, a multimode plate reader (M200, Tecan, Switzerland) was used to measure the optical density of samples. […]
(§6) To form an intestinal fibrosis model suitable for, e.g. drug testing, in OCTOPUS, mouse intestinal stem cells were mixed with 1×10^6 cells/ml of mouse intestinal fibroblasts in Matrigel (356255, Corning, USA). […] The fibrosis model was treated with drugs for 48 hours, after which changes in its fibrotic phenotype were analyzed using the methods described herein.

[3] = system: co-culture microtissues of intestinal organoids and fibroblasts; experiment: Intestinal fibrosis model in OCTOPUS, tissue stiffness by atomic force microscopy; conditions: for stiffness of the TGF-β-treated fibrotic tissues (AFM): administered at higher doses
Procedure: To further validate the fibrotic phenotype of the model, the stiffness of the TGF-β-treated microtissues was measured by using atomic force microscopy (AFM). This measurement was greatly facilitated by the open-top design of OCTOPUS that allowed direct access of the AFM probe to the tissue constructs in the culture chambers (FIG. 6K). […] As expected, treatment of this model with TGF-01 led to a marked increase in the extent of tissue stiffening and generated co-culture constructs that were 2.9 times stiffer than those in the untreated devices (FIG. 6K).
The average stiffness measured in the fibrosis model treated with 0.5 mM Pirfenidone (3.5 kPa) closely matched that of normal tissue constructs (3.3 kPa), illustrating the potential of Pirfenidone to normalize the mechanical property of fibrotic intestinal tissues in the model system.
as §3
Atomic force microscopy (AFM, MFP-3D-BIO, Asylum) was used to measure the stiffness of hydrated microtissues in the intestinal fibrosis models. A gold-coated cantilever (SCONT tip, NANOSENSORS) with a spring constant of 14.58 pN/nm and a pyramid indenter was used to obtain force-indentation curves. The tissue samples in the open chambers were used directly without any modification. For the AFM measurement, the OCTOPUS insert containing microtissue was removed from the plate and mounted on the instrument. After wetting the microtissue with a drop of PBS, its mechanical property was measured with the scanning probe. Young's modulus was calculated from the force indentation data using the Atomic J software.

[4] = system: co-culture of intestinal organoids and primary intestinal fibroblasts (fibronectin); experiment: Intestinal fibrosis model in OCTOPUS, fibronectin (FN) deposition by immunofluorescence
Excerpt: as §5, §2, §3, §4

[5] = system: primary intestinal fibroblasts co-cultured with intestinal organoids; experiment: Intestinal fibrosis model in OCTOPUS, fibroblast proliferation; conditions: TGF-β 1 ng/ml from day 5; by day 12
Excerpt: as §1, §6

[6] = 0.5 μM, 48 hours, to levels comparable to Pirfenidone at 0.5 mM
[7] = higher-dose (0.5 mM) treatment, 48 hours

Nc1ncnc2c1ncn2[C@@H]1O[C@H](COP(=O)(O)OP(=O)(O)OP(=O)(O)O)[C@@H](O)[C@H]1O [ATP]
calcium response of the conventional model (Matrigel drop) (intestinal organoids; 100 μM, hydrogel drop culture, versus OCTOPUS): noticeably slower and occurred to a lesser extent
increase in Fluo-4 fluorescence (intracellular calcium) (intestinal organoids; 100 μM, organoids in OCTOPUS, within 60 seconds): approximately 1.6 fold

O=C[C@H](O)[C@@H](O)[C@H](O)[C@H](O)CO [D-glucose]
increase in intracellular calcium in OCTOPUS (intestinal organoids; 50 mM, organoids in OCTOPUS): greater than that induced by ATP stimulation

COC(=O)c1ccc2c(c1)NC(=O)/C2=C(\Nc1ccc(N(C)C(=O)CN2CCN(C)CC2)cc1)c1ccccc1 [Nintedanib]
fibroblast activation (αSMA) [1, 6]: decreased substantially
effects on the fibrosis model (αSMA, FN) ([1]; lower dose 0.1 μM, 48 hours): failed to exert significant effects
concomitant reduction in the concentration of released FN (ELISA) ([2]; 0.5 μM, 48 hours): not observed
stiffness of the TGF-β-treated fibrotic tissues (AFM) ([3]; 48 hours): significantly decreased
FN accumulation [4, 6]: decreased substantially

Cc1ccc(=O)n(-c2ccccc2)c1 [Pirfenidone]
reduction in αSMA compared to the untreated control ([1]; 0.1 mM, 48 hours, TGF-β-induced fibrotic constructs): 50%
expression of αSMA ([1]; dose increased to 0.5 mM, 48 hours): further decreased
level of αSMA expression versus normal group (healthy intestinal tissue) [1, 7]: statistically indistinguishable
amount of FN released from the model (ELISA) ([2]; 48 hours treatment): reduced
average stiffness of the treated fibrosis model ([3]; 0.5 mM, 48 hours, normal tissue constructs 3.3 kPa): 3.5 kPa
stiffness of the TGF-β-treated fibrotic tissues (AFM) ([3]; 48 hours): significantly decreased
immunofluorescence of FN in drug-treated fibrotic constructs ([4]; 48 hours treatment): significantly decreased
level of FN production versus normal group (healthy intestinal tissue) [4, 7]: statistically indistinguishable

transforming growth factor (TGF)-β [TGF-β]
increase in level of αSMA expression in comparison to untreated tissues ([1]; by day 8): more than 1.9 fold
increase in level of αSMA expression in comparison to untreated tissues ([1]; by day 12): > 2.9 fold
released FN (ELISA of conditioned media) ([2]; TGF-β 1 ng/ml, day 5 to day 12): higher levels of released FN
average tissue stiffness ([3]; TGF-β-treated co-culture constructs, AFM): 10.1 kPa
stiffness of co-culture constructs relative to untreated devices ([3]; TGF-β-treated, AFM, 14 days culture): 2.9 times
fibroblast proliferation, cells compared to the untreated control group [5]: approximately twice as many cells
FN in the pericellular regions of fibroblasts (immunostaining) compared to untreated tissues ([4]; TGF-β 1 ng/ml, day 5 to day 12): substantially increased
